Assay results reported in patent US20240156778A1, “THIOPHENE DERIVATIVES FOR USE IN TREATING PORTAL INFLAMMATION AND FIBROSIS” (ENYO PHARMA, priority 2019, published 2024).

Assays:
[1] = test system: NASH mouse model; test: Periportal fibrosis (% fractional area, Picro Sirius Red) in the AMLN-diet NASH mouse model; type: in vivo, male C57BL/6JRj mice; conditions: 8 weeks oral dosing after high-fat (AMLN) diet; Compound #157 7 or 20 mg/kg twice daily; FIG. 2
Experimental: (§1) Mice were fed with a high-fat diet for 30 weeks and then treated by oral administration, twice daily with either compound #157 or once daily with OCA for 8 weeks. Effects on portal/periportal inflammation and fibrosis and on lobular inflammation were determined before treatment and upon study completion.
(§2) Five week old, male C57BL/6JRj mice were fed either chow diet (Altromin 1324, Brogaarden, Denmark) or AMLN diet (40% total fat kcal of which 18.5% were trans-fat kcal, 20% fructose, 2% cholesterol; Research Diets #D09100301). This diet was maintained for 29 weeks prior to study initiation.
Three weeks prior to study initiation, liver biopsies were taken and animals with steatosis grade <2 and fibrosis stage <1 were deselected from the study. […]
(§3) At termination, right medial and/or left lateral lobes of the liver (>50% of each lobe harvested) were excised and fixed in 10% neutral-buffered formalin (at least 7 days at room temperature). […] NAFLD and NASH were scored by use of criteria outlined by Kleiner et al. Hepatology 41, p. […]
Portal fibrosis was quantified using Visiopharm Histopathology Image Analysis software (Visioparm, Hørsholm, Denmark). […] Periportal fibrosis was then detected in the periportal zone using the linear Bayesian method and reported as an area fraction.

[2] = test system: NASH mouse model; test: Periportal inflammation score in the AMLN-diet NASH mouse model (H&E inflammatory foci); type: in vivo, male C57BL/6JRj mice; conditions: 8 weeks oral dosing after high-fat (AMLN) diet; Compound #157 7 or 20 mg/kg twice daily; OCA 30 mg/kg once daily; FIG. 1
Experimental: as §1, §2
Three weeks prior to study initiation, liver biopsies were taken and animals with steatosis grade <2 and fibrosis stage <1 were deselected from the study. Prior to first administration of test article, stratified randomization of mice into treatment groups was performed according to collagen 1a1 (IHC) morphometry from the week -3 biopsies. […]
as §3
Inflammation was evaluated by counting the number of hematoxylin and eosin (H&E) positive inflammatory foci per field using a 200× magnification (min. 5 fields per animal). […]

Row | Compound | Effect on portal/periportal fibrosis [1] | Effect on portal/periportal inflammation [2]
1 | O=C(Nc1scc(C2CCc3ccccc3C2)c1C(=O)O)c1ccccc1 (stereo not drawn) [Compound #157] | resolves | resolves
2 | CC[C@H]1[C@@H](O)[C@@H]2[C@H](CC[C@]3(C)[C@@H]([C@H](C)CCC(=O)O)CC[C@@H]23)[C@@]2(C)CC[C@@H](O)C[C@@H]12 [OCA, Obeticholic acid, reference compound] | – | no effect
